Source: patent US20120196858A1, “METHOD OF PROMOTING APOPTOSIS AND INHIBITING METASTASIS” (Poniard Pharmaceuticals ,Inc., priority 2009, published 2012)
Read-outs that look alike come from different tables or passages of the source.

Columns and labels:
[1] = biological target: T1, CDK2 (cyclin-dependent kinase 2)/cyclin A (Homo sapiens, UniProt P24941); experiment: Millipore KinaseProfiler selectivity screen; type: biochemical
T1 construct: purchased Millipore (KinaseProfiler service)
Description: (§1) Baculovirus FAK catalytic domain and in vitro kinase assays: The FAK catalytic domain region (411-686) was generated by polymerase chain reaction using the primers 5′-[…]-3′ 5′-[…]-3′, cloned into pGEX4T as a fusion with GST, and moved into the pAcG2T baculovirus expression vector (Pharmingen, Baculogold). Virus clones were identified by plaque assays and amplified. For protein expression, SF9 cells were transduced at a multiplicity of infection of 2-5 pfu/cell and cultured at 27° C. for 48 h. Glutathione agarose affinity chromatography were used to purify GST-FAK (411-686) followed by size fractionation using hiload 16/60 Superdex chromatography (GE Healthcare). Protein was concentrated and stored frozen in 50 mM Tris pH 8.0, 150 mM NaCl, 1 mM Na orthovanadate, 0.5 mM EDTA, 0.5 mM EGTA, 0.1% β-mercaptoethanol, and 20% glycerol. Purity was estimated at >90% by SDS-PAGE. GST-FAK in vitro kinase activity was measured and compared to His-tagged FAK 411-686 (Millipore) using the K-LISA screening kit (Calbiochem) and poly(Glu:Tyr) (4:1) copolymer (P0275, Sigma) as a substrate immobilized on microtiter plates. […] Serial diluted compounds at ½-Log concentrations (starting at 1 μM) were tested in triplicate. Substrate phosphorylation was measured using horseradish peroxidase-conjugated anti-pTyr antibodies (PY20, Santa Cruz Biotechnology) with spetrophotometic color quantitation. IC50 values were determined using the Hill-Slope Model. Kinase selectivity profiling was performed by using the KinaseProfiler service (Millipore).

[2] = biological target: T2, TrkA (tropomyosin-related kinase A) (Homo sapiens, UniProt P04629); experiment: Millipore KinaseProfiler selectivity screen; type: biochemical
T2 construct: purchased Millipore (KinaseProfiler service)
T2 sequence (P04629 33-796): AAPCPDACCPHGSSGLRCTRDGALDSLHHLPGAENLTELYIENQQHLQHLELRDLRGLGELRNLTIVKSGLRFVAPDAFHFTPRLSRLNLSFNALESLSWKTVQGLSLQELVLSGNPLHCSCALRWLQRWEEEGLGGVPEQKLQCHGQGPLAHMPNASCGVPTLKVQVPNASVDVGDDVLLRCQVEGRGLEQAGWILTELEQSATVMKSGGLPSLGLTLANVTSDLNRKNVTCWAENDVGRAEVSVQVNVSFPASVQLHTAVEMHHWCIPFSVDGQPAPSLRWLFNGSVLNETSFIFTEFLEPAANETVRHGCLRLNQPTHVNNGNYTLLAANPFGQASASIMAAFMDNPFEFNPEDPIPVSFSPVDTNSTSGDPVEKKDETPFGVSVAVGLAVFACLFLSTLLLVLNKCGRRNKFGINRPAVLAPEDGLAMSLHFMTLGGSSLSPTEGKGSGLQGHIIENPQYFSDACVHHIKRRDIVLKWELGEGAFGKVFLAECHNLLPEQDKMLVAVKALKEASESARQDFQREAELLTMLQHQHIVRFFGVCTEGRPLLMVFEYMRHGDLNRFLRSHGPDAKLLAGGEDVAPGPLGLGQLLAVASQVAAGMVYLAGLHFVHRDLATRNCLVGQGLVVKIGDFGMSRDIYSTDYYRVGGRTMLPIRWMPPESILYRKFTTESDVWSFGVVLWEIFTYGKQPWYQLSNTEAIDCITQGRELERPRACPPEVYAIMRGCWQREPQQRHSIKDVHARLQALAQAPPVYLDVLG
Description: as §1

[3] = Pharmacokinetic (PK) evaluation in mice; type: in vivo, Balb/c mice
Description: Blood samples were collected via terminal heart puncture at 0.5, 1, 2, 4, 8, 12, 24 and 48 h for p.o. administration and 0.083, 0.25, 0.5, 1, 2, 4, 8, 12, 24 and 48 h for i.p. and i.v. administration. 3 mice per time point were used. For ad libitum administration, blood samples were collected after 7 days using five mice per group. Samples were collected in tubes containing 0.05 ml 0.5 M EDTA, centrifuged at 900×g for 15 min at room temperature, and the plasma collected. PND-1186 content was determined by high-performance liquid chromatography (HPLC) and mass spectroscopy analyses (see Supplemental Methods).

MDA-MB-231 cells = experiment: Experimental metastasis assay (tail vein injection); type: in vivo, nude mice; conditions: 150 mg/kg p.o. pre-administered; 1 and 6 h
Description: To determine experimental metastasis burden, lungs were removed 1 and 6 h post cell injection, rinsed in PBS, and dorsal plus ventral fluorescent images acquired using OV100 imaging. A common threshold for mCherry fluorescence was set for all images and the total fluorescent lung area was calculated using Image J.

4T1 cells = experiment: Soft agar colony growth and apoptosis assay; type: cell-based, murine
Description: Anchorage-dependent, spheroid, and soft agar cell growth assays: Cells (2×10^5) were plated per 35 mm well under adherent (tissue culture-treated) and non-adherent conditions (poly-HEMA-coated) in 6-well plates (Costar) in growth media. Between 24 and 168 h, all cells were collected, a single cell suspension was prepared by limited trypsin-EDTA treatment, and viable cells were enumerated by trypan blue staining and counting (ViCell XR, Beckman). For spheroid area determination, cells were imaged after 72 h in phase contrast using an Olympus IX51 microscope. Area was calculated using Image J software (version 1.43). For soft agar assays, 48-well plates were coated with a 1:4 mix of 2% agar (EM Science) in 0.2 ml growth media (bottom layer). 5×10^4 cells were plated per well (in triplicate) in a mixture of 0.3% agar in 0.2 ml growth media (top layer). […] After 10 days, colonies were imaged in phase contrast, enumerated by counting 9 fields (3 fields per well), and total area determined using Image J. For all analyses, experimental points were performed in triplicate and were experiments were repeated at least two times.
Cell pellets were resuspended in 300 p. 1 of PBS containing propidium iodide (PI) (10 μg/ml), DNAse-free RNAse (100 μg/ml, Qiagen), and then incubated at 37° C. with agitation for 1 h. Samples were analyzed by flow cytometry (FACSCalibur, Becton-Dickinson) and cell cycle analyses were performed by ModFit LT3.2 software (Verity software house). Hypodiploid DNA content as a measure of cell apoptosis was detected by PI staining as described ^29. […] Quadrant gates were positioned based on cell autofluorescence (negative) staurosporine-treated (positive) controls. Apoptosis was calculated to be the percent of annexin V-positive cells. In the soft agar assays, apoptosis was quantified by visual inspection of at least 200 cells and was defined as the appearance of membrane blebbing or cell shrinkage. Apoptosis was also detected by appearance of cleaved caspase-3 antibody reactivity in protein lysates by immunoblotting.

[4] = biological target: T3, FAK Tyr-397 phosphorylation (Mus musculus, UniProt P34152); experiment: Anti-phospho-specific immunoblotting of FAK pY397 in 4T1 cells; type: cell-based, murine
T3 construct: endogenous in cells; host or cells: 4T1 murine mammary carcinoma cells
T3 sequence (P34152 whole entry): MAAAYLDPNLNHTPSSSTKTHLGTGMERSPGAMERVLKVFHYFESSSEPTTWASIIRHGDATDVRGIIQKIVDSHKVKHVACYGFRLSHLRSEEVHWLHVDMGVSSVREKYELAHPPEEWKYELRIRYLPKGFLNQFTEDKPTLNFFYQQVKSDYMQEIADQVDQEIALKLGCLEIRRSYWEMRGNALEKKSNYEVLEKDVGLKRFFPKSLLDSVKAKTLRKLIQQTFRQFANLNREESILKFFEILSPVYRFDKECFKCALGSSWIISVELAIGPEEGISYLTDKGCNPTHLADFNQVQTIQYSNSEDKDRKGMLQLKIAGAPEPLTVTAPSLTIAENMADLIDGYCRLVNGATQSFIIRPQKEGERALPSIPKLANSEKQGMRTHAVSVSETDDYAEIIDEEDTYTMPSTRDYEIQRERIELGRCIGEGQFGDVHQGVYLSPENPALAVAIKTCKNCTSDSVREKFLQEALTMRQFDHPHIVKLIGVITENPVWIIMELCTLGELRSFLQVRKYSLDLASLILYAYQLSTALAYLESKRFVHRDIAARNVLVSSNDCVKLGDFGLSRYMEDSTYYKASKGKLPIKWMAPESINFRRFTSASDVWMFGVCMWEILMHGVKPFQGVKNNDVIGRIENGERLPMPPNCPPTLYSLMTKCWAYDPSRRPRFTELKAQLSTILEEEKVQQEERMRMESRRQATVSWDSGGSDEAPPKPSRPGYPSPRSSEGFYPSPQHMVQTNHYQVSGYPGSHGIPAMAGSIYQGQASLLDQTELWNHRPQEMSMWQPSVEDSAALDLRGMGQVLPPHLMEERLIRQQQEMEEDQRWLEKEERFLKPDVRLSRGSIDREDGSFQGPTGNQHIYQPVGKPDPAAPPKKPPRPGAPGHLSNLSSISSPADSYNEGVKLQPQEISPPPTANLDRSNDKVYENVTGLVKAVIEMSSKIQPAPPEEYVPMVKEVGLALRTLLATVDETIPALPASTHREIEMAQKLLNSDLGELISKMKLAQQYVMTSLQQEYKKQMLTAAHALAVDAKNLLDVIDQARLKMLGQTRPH
Description: Immunoblotting: Protein extracts of cells were made using lysis buffer containing 1% Triton X-100, 1% sodium deoxycholate, and 0.1% SDS and were separated by 4-12% SDS-PAGE (sodium dodecyl sulfate polyacrylamide gel electrophoresis) and sequential immunoblotting performed as described in Mitra S K, Lim S T, Chi A, Schlaepfer D D. Intrinsic focal adhesion kinase activity controls orthotopic breast carcinoma metastasis via the regulation of urokinase plasminogen activator expression in a syngeneic tumor model. Oncogene 2006; 25:4429-40. Relative expression levels and phospho-specific antibody reactivity were measured by densitometry analyses of blots using Image J (version 1.42q). Inhibition of FAK and p130Cas tyrosine phosphorylation was quantified by calculating the ratio of pY397 FAK protein to total FAK. Similar analyses were performed for p130Cas using pY410 p130Cas and total p130Cas blot data.

CNC(=O)c1ccccc1Nc1cc(Nc2ccc(N3CCOCC3)cc2OC)ncc1C(F)(F)F [PND-1186]
inhibition at 1 µM [1]: > 50% | inhibition at 1 µM [2]: > 50% | CSS ([3]; 0.5 mg/ml ad libitum, mice): 1.16 µM | AUC(0-inf) ([3]; 2 mg/kg i.v., mice): 6,960 ng · h/mL | Cl ([3]; 2 mg/kg i.v., mice): 4.78 mL/min/kg | Vd ([3]; 2 mg/kg i.v., mice): 0.714 L/kg | t1/2 ([3]; 2 mg/kg i.v., mice): 1.72 h | AUC(0-inf) ([3]; 30 mg/kg i.p., mice): 32,500 ng · h/mL | Cmax ([3]; 30 mg/kg i.p., mice): 34.8 µM | TMAX ([3]; 30 mg/kg i.p., mice): 0.25 h | t1/2 ([3]; 30 mg/kg i.p., mice): 2.27 h | AUC(0-inf) ([3]; 100 mg/kg i.p., mice): 147,000 ng · h/mL | Cmax ([3]; 100 mg/kg i.p., mice): 117 µM | TMAX ([3]; 100 mg/kg i.p., mice): 0.50 h | t1/2 ([3]; 100 mg/kg i.p., mice): 2.65 h | maximal plasma level ([3]; 150 mg/kg oral, by 4 h): ~14 µM | sustained plasma level ([3]; 150 mg/kg oral, for 12 h): above 3 μM | AUC(0-inf) ([3]; 150 mg/kg p.o., mice): 77,400 ng · h/mL | Cmax ([3]; 150 mg/kg p.o., mice): 14 µM | TMAX ([3]; 150 mg/kg p.o., mice): 4.00 h | t1/2 ([3]; 150 mg/kg p.o., mice): 2.15 h | AUC(0-inf) ([3]; Balb/c, mouse, plasma, oral, 0.5 mg/kg, 0.5 mg/ml ad libitum, mice, read-out: AUC(0-inf)): 13.1 ng·h/mL | bioavailability (% F) ([3]; i.p. and p.o. dosing): 14.8 to 42.2% | terminal half lives (t1/2) ([3]; i.p. and p.o. dosing): 2.15 to 2.65 h | dose dependence of plasma concentrations, Cmax and AUC(0-inf) ([3]; mouse, in vivo): increased in a linear fashion as a function of dose | accumulation of tumor cells in the lungs (MDA-MB-231 cells): significantly inhibited the accumulation of tumor cells in the lungs | 4T1 cell apoptosis (membrane blebbing and cell shrinkage) (4T1 cells; 0.2 μM, soft agar): > 50% | total number and size of soft agar colonies (4T1 cells; 10 days, dose-dependent): inhibited both the total number and size | inhibition at 0.2 µM (4T1 cells; Mus musculus, 4T1, 240 h, 0.2 μM, 10 days, read-out: inhibition of soft agar colony size): 77% | FAK pY397 phosphorylation in 4T1 spheroids ([4]; 0.1 μM, 3D spheroids): potently inhibited | FAK pY397 phosphorylation, adherent and suspended cells ([4]; 0.1 μM, 24 h): sufficient to inhibit FAK pY397 phosphorylation | maximal reduction of FAK pY397 phosphorylation ([4]; 4T1 cells, 0.1 to 1.0 μM, 1 h): ~80%
